Assay results published in patent US11407757B2, “Heterocycle compounds as Tyro3, Axl and MerTK (TAM) family of receptor tyrosine kinase inhibitors” (Development Center for Biotechnology, priority 2017, dated 2022).
pIC50: −log10 of the molar value.

biological target: Axl kinase (Homo sapiens (Human), UniProt P30530); test: Axl kinase assay (AlphaScreen); type: biochemical; details: activity level class
Sequence (P30530 26-894): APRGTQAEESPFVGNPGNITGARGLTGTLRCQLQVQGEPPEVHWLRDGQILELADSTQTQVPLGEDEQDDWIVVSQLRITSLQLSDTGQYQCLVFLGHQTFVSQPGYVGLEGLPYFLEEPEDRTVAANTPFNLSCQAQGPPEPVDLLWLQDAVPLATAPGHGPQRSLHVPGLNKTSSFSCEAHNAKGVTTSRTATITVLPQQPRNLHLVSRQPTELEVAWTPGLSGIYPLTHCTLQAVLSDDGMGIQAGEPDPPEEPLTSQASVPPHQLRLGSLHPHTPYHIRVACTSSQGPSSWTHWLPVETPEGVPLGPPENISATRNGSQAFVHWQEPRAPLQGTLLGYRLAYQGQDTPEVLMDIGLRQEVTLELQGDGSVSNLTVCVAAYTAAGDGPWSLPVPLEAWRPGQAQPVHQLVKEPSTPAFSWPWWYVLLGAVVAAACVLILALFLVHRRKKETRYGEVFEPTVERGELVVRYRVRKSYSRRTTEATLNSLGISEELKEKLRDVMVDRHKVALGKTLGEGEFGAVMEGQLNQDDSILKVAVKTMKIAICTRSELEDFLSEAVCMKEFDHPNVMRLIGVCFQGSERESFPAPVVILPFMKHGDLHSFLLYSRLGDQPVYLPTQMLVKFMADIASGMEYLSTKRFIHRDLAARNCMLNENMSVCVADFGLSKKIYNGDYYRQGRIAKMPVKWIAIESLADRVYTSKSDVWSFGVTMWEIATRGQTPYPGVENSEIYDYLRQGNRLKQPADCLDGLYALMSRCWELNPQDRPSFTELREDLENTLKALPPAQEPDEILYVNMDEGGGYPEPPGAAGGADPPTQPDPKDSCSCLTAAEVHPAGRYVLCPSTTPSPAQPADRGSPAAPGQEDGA

| pIC50 | SMILES |
| --- | --- |
| > 7.52 | COCCOc1nc(Nc2ccc(CN3CCN(C)CC3)cc2)nc2[nH]cc(-c3ccc4nc(C)oc4c3)c12 [Compound 64, 4-(2-methoxyethoxy)-5-(2-methylbenzo[d]oxazol-6-yl)-N-(4-((4-methylpiperazin-1-yl)methyl)phenyl)-7H-pyrrolo[2,3-d] pyrimidin-2-amine] |
| > 7.52 | COCCOc1nc(Nc2ccc(CN3CCN(C)CC3)cc2)nc2[nH]cc(-c3ccc(OCn4ccccc4=O)cc3F)c12 [Compound 68, 1-((3-fluoro-4-(4-(2-methoxyethoxy)-2-((4-((4-methylpiperazin-1-yl)methyl)phenyl)amino)-7H-pyrrolo[2,3-d]pyrimidin-5-yl)phenoxy)methyl) pyridin-2(1H)-one] |
| > 7.52 | CC(C)Oc1nc(Nc2ccc(CN3CCN(C)CC3)cc2)nc2[nH]cc(-c3ccc(F)cc3F)c12 [Compound 69, 5-(2,4-difluorophenyl)-4-isopropoxy-N-(4-((4-methylpiperazin-1-yl)methyl)phenyl)-7H-pyrrolo[2,3-d]pyrimidin-2-amine] |
| > 7.52 | CN1CCN(Cc2ccc(Nc3nc(NC4CCOCC4)c4c(-c5ccc(F)cc5F)c[nH]c4n3)cc2)CC1 [Compound 75, 5-(2,4-difluorophenyl)-N2-(4-((4-methylpiperazin-1-yl)methyl)phenyl)-N4-(tetrahydro-2H-pyran-4-yl)-7H-pyrrolo[2,3-d]pyrimidine-2,4-diamine] |
| > 7.52 | COCCOc1nc(Nc2ccc(CN3CCN(C)CC3)cc2)nc2[nH]cc(-c3ccc(F)cc3)c12 [Compound 85, 5-(4-fluorophenyl)-4-(2-methoxyethoxy)-N-(4-((4-methylpiperazin-1-yl)methyl)phenyl)-7H-pyrrolo[2,3-d]pyrimidin-2-amine] |
| > 7.52 | COCCOc1nc(Nc2ccc(CN3CCN(C)CC3)cc2)nc2[nH]cc(-c3ccc(S(=O)(=O)N(C)C)cc3F)c12 [Compound 91, 3-fluoro-4-(4-(2-methoxyethoxy)-2-((4-((4-methylpiperazin-1-yl)methyl)phenyl)amino)-7H-pyrrolo[2,3-d]pyrimidin-5-yl)-N,N-dimethylbenzene-sulfonamide] |
| > 7.52 | COCCOc1nc(Nc2ccc(CN3CCN(C)CC3)cc2)nc2[nH]cc(-c3ccc(OCc4ccccn4)cc3F)c12 [Compound 92, 5-(2-fluoro-4-(pyridin-2-ylmethoxy)phenyl)-4-(2-methoxyethoxy)-N-(4-((4-methylpiperazin-1-yl)methyl)phenyl)-7H-pyrrolo[2,3-d]pyrimidin-2-amine] |
| > 7.52 | COCCOc1nc(Nc2ccc(CN3CCN(C)CC3)cc2)nc2[nH]cc(-c3ccc(OCc4cccc(C)n4)cc3F)c12 [Compound 103, 5-(2-fluoro-4-((6-methylpyridin-2-yl)methoxy)phenyl)-4-(2-methoxyethoxy)-N-(4-((4-methylpiperazin-1-yl)methyl)phenyl)-7H-pyrrolo[2,3-d]pyrimidin-2-amine] |
| > 7.52 | COCCOc1nc(Nc2ccc(CN3CCN(C)CC3)cc2)nc2[nH]cc(-c3ccc(OCc4ncccn4)cc3F)c12 [Compound 107, 5-(2-fluoro-4-(pyrimidin-2-ylmethoxy)phenyl)-4-(2-methoxyethoxy)-N-(4-((4-methylpiperazin-1-yl)methyl)phenyl)-7H-pyrrolo[2,3-d]pyrimidin-2-amine] |
| > 7.52 | CCN1CCN(Cc2ccc(Nc3nc(OCCOC)c4c(-c5ccc(OCc6ncccc6C)cc5F)c[nH]c4n3)cc2)CC1 [Compound 112, N-(4-((4-ethylpiperazin-1-yl)methyl)phenyl)-5-(2-fluoro-4-((3-methylpyridin-2-yl)methoxy)phenyl)-4-(2-methoxyethoxy)-7H-pyrrolo[2,3-d]pyrimidin-2-amine] |

More lines, now with the values behind:

| SMILES | pIC50 |
| --- | --- |
| CN1CCN(Cc2ccc(Nc3nc(OCC4CCCO4)c4c(-c5ccc(F)c(Cl)c5)c[nH]c4n3)cc2)CC1 (stereo not shown) [Compound 77, 5-(3-chloro-4-fluorophenyl)-N-(4-((4-methylpiperazin-1-yl)methyl)phenyl)-4-((tetrahydrofuran-2-yl)methoxy)-7H-pyrrolo[2,3-d]pyrimidin-2-amine] | > 7.52 |
| COCCOc1nc(Nc2ccc(CN3CCN(C)CC3)cc2)nc2[nH]cc(-c3ccc(S(=O)(=O)N(C)C)cc3)c12 [Compound 79, 4-(4-(2-methoxyethoxy)-2-((4-((4-methylpiperazin-1-yl)methyl)phenyl)amino)-7H-pyrrolo[2,3-d]pyrimidin-5-yl)-N,N-dimethylbenzene-sulfonamide] | > 7.52 |
| COCCOc1nc(Nc2ccc(CN(C)C)cc2)nc2[nH]cc(-c3ccc(F)cc3F)c12 [Compound 80, 5-(2,4-difluorophenyl)-N-(4-((dimethylamino)methyl)phenyl)-4-(2-methoxyethoxy)-7H-pyrrolo[2,3-d]pyrimidin-2-amine] | > 7.52 |
| COCCOc1nc(Nc2ccc(CN3CCN(C)CC3)cc2)nc2[nH]cc(-c3ccc4c(cnn4C)c3)c12 [Compound 97, 4-(2-methoxyethoxy)-5-(1-methyl-7H-indazol-5-yl)-N-(4-((4-methylpiperazin-1-yl)methyl)phenyl)-7H-pyrrolo[2,3-d]pyrimidin-2-amine] | > 7.52 |
| COCCOc1nc(Nc2ccc(CN3CCN(C)CC3)cc2)nc2[nH]cc(-c3ccc(OCc4cccc(F)n4)cc3F)c12 [Compound 104, 5-(2-fluoro-4-((6-fluoropyridin-2-yl)methoxy)phenyl)-4-(2-methoxyethoxy)-N-(4-((4-methylpiperazin-1-yl)methyl)phenyl)-7H-pyrrolo[2,3-d]pyrimidin-2-amine] | > 7.52 |
| COCCOc1nc(Nc2ccc(CN3CCN(C)CC3)cc2)nc2[nH]cc(-c3ccc(OCc4ccc(C)cn4)cc3F)c12 [Compound 105, 5-(2-fluoro-4-((5-methylpyridin-2-yl)methoxy)phenyl)-4-(2-methoxyethoxy)-N-(4-((4-methylpiperazin-1-yl)methyl)phenyl)-7H-pyrrolo[2,3-d]pyrimidin-2-amine] | > 7.52 |
| COCCOc1nc(Nc2ccc(CN3CCN(C)CC3)cc2)nc2[nH]cc(-c3ccc(OCc4ccccn4)cc3)c12 [Compound 110, 4-(2-methoxyethoxy)-N-(4-((4-methylpiperazin-1-yl)methyl)phenyl)-5-(4-(pyridin-2-ylmethoxy)phenyl)-7H-pyrrolo[2,3-d]pyrimidin-2-amine] | > 7.52 |
| COCCOc1nc(Nc2ccc(CN3CCC(C)CC3)cc2)nc2[nH]cc(-c3ccc(OCc4ncccc4C)cc3F)c12 [Compound 111, 5-(2-fluoro-4-((3-methylpyridin-2-yl)methoxy)phenyl)-4-(2-methoxyethoxy)-N-(4-((4-methylpiperidin-1-yl)methyl)phenyl)-7H-pyrrolo[2,3-d]pyrimidin-2-amine] | > 7.52 |

biological target: Mer kinase (Homo sapiens (Human), UniProt Q12866); test: Mer kinase assay (AlphaScreen); details: read-out: Mer kinase IC50; activity level class
Sequence (Q12866 21-999): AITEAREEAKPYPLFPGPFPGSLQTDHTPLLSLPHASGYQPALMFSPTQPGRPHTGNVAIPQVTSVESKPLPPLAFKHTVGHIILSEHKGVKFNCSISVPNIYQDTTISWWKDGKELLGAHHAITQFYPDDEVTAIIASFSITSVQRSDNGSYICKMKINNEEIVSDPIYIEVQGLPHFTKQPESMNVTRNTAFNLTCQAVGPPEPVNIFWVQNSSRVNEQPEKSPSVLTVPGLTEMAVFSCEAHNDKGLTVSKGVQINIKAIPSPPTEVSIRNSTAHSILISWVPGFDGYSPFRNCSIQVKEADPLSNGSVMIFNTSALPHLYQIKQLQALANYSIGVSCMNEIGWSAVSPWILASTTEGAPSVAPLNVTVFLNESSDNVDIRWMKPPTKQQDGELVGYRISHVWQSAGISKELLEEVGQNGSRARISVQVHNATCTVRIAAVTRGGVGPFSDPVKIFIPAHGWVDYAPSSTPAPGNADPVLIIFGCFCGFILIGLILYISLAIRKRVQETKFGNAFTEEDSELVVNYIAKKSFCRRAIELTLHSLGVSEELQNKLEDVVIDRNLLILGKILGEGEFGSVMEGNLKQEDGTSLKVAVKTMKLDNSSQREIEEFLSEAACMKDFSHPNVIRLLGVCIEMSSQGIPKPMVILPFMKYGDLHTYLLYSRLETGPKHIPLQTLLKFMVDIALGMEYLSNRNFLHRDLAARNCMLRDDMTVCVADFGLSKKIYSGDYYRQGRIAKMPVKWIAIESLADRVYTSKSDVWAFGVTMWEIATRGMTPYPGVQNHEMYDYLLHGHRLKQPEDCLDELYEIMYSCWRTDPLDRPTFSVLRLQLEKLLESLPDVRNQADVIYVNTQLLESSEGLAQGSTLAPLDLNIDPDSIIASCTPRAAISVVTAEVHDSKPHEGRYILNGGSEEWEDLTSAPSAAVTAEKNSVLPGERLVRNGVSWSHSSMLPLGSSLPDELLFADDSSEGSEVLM

| pIC50 | SMILES |
| --- | --- |
| < 6.00 | COc1nc(Nc2ccc(CN3CCOCC3)cc2)nc2[nH]cc(-c3ccc(S(=O)(=O)N(C)C)cc3)c12 [Compound 7, 4-(4-methoxy-2-((4-(morpholinomethyl)phenyl)amino)-7H-pyrrolo[2,3-d]pyrimidin-5-yl)-N,N-dimethylbenzene-sulfonamide] |
| < 6.00 | COc1nc(Nc2ccc(CN3CCN(C)CC3)cc2)nc2[nH]cc(-c3ccc(OCc4ccccc4)cc3F)c12 [Compound 46, 5-(4-(benzyloxy)-2-fluorophenyl)-4-methoxy-N-(4-((4-methylpiperazin-1-yl)methyl)phenyl)-7H-pyrrolo[2,3-d]pyrimidin-2-amine] |
| < 6.00 | CCN(CC)S(=O)(=O)c1ccc(-c2c[nH]c3nc(Nc4ccc(CN5CCN(C)CC5)cc4)nc(OCCOC)c23)cc1 [Compound 86, N,N-diethyl-4-(4-(2-methoxyethoxy)-2-((4-((4-methylpiperazin-1-yl)methyl)phenyl)amino)-7H-pyrrolo[2,3-d]pyrimidin-5-yl)benzenesulfonamide] |
| < 6.00 | COCCOc1nc(Nc2ccc(CN3CCN(C)CC3)cc2)nc2[nH]cc(-c3ccc(S(=O)(=O)N4CCOCC4)cc3)c12 [Compound 88, 4-(2-methoxyethoxy)-N-(4-((4-methylpiperazin-1-yl)methyl)phenyl)-5-(4-(morpholinosulfonyl)phenyl)-7H-pyrrolo[2,3-d]pyrimidin-2-amine] |

The next lines start with the compound.

| SMILES | pIC50 |
| --- | --- |
| COc1nc(Nc2ccc(CN3CCC(N)CC3)cc2)nc2[nH]cc(-c3ccc(S(=O)(=O)N(C)C)cc3)c12 [Compound 6, 4-(2-((4-((4-aminopiperidin-1-yl)methyl)phenyl)amino)-4-methoxy-7H-pyrrolo[2,3-d]pyrimidin-5-yl)-N,N-dimethylbenzene-sulfonamide] | < 6.00 |
| COc1ccc(-c2c[nH]c3nc(Nc4ccc(CN5CCN(C)CC5)cc4)nc(OC)c23)cc1 [Compound 20, 4-methoxy-5-(4-methoxyphenyl)-N-(4-((4-methylpiperazin-1-yl)methyl)phenyl)-7H-pyrrolo[2,3-d] pyrimidin-2-amine] | < 6.00 |
| COc1nc(Nc2ccc(CN3CCC(C)CC3)cc2)nc2[nH]cc(-c3ccc(NC(=O)c4cc(C)n(C)n4)cc3)c12 [Compound 26, N-(4-(4-methoxy-2-((4-((4-methylpiperidin-1-yl)methyl)phenyl)amino)-7H-pyrrolo[2,3-d]pyrimidin-5-yl)phenyl)-1,5-dimethyl-7H-pyrazole-3-carboxamide] | < 6.00 |
| COc1cc(-c2c[nH]c3nc(Nc4ccc(CN5CCC(C)CC5)cc4)nc(OC)c23)ccc1OCc1ccccc1 [Compound 44, 5-(4-(benzyloxy)-3-methoxyphenyl)-4-methoxy-N-(4-((4-methylpiperidin-1-yl)methyl)phenyl)-7H-pyrrolo[2,3-d] pyrimidin-2-amine] | < 6.00 |
| COCCOc1nc(Nc2ccc(CN3CCN(C)CC3)cc2)nc2[nH]cc(-c3ccc(C(F)(F)F)cc3)c12 [Compound 84, 4-(2-methoxyethoxy)-N-(4-((4-methylpiperazin-1-yl)methyl)phenyl)-5-(4-(trifluoromethyl)phenyl)-7H-pyrrolo[2,3-d]pyrimidin-2-amine] | < 6.00 |
| COCCOc1nc(Nc2ccc(CN3CCN(C)CC3)cc2)nc2[nH]cc(-c3ccc(S(=O)(=O)N4CC(C)CC(C)C4)cc3)c12 (stereo not shown) [Compound 87, 5-(4-((3,5-dimethylpiperidin-1-yl)sulfonyl)phenyl)-4-(2-methoxyethoxy)-N-(4-((4-methylpiperazin-1-yl)methyl)phenyl)-7H-pyrrolo[2,3-d]pyrimidin-2-amine] | < 6.00 |
